Test results: the NIST ThermoML archive (doi:10.1016/j.jct.2007.11.009)

Assay: xn = mol fraction of the nth substance listed
Conditions: 318.15 K, Liquid, Vibrating tube method

CCCCCCCC [octane] + c1ccccc1
mass density [kg/m3]
Conditions	x1 = 0.1097	x1 = 0.2036	x1 = 0.2984	x1 = 0.4069	x1 = 0.5027	x1 = 0.5904	x1 = 0.6989	x1 = 0.7964	x1 = 0.904	x1 = 1
100 kPa	818.2	794.1	773.6	753.6	738.1	725.8	712.4	701.5	691.1	682.8
2130 kPa	820.2	796.1	775.6	755.6	740.1	727.8	714.4	703.5	693.1	684.7
4150 kPa	822.1	798.1	777.6	757.6	742.1	729.8	716.4	705.5	695.1	686.7
6180 kPa	824	800	779.5	759.5	744	731.7	718.3	707.4	696.9	688.6
8210 kPa	825.8	801.9	781.4	761.4	745.9	733.6	720.2	709.3	698.8	690.4
10230 kPa	827.7	803.7	783.3	763.3	747.8	735.5	722	711.1	700.6	692.2
11250 kPa	828.6	804.6	784.2	764.2	748.7	736.4	722.9	712	701.5	693.1
12260 kPa	829.4	805.5	785.1	765.1	749.6	737.3	723.8	713	702.4	694
14290 kPa	831.2	807.3	786.8	766.9	751.4	739.1	725.6	714.7	704.2	695.7
16310 kPa	832.9	809	788.6	768.6	753.2	740.8	727.3	716.4	705.9	697.4
18340 kPa	834.6	810.7	790.3	770.3	754.9	742.5	729	718.1	707.5	699.1
20370 kPa	836.2	812.4	792	772	756.6	–	–	–	–	–
